# In ChEMBL document CHEMBL1201862, “PubChem BioAssay data set” (2004):
#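 Compound exposure: 48 hours, 5 concentrations, 96-well plates. Here, GI50 denotes the concentration required for 50% inhibition of growth.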 Active and inactive are the calls of the source. Cut-off read from the data, not from the text of the source: active = GI50 up to about 1.1 µM and inactive = higher.
# Key:
# Assay in all cases: DTP human tumour cell line panel, 48 h
# HOP-62 = system: HOP-62
# U-251 = system: U-251
# LXFL 529 = system: LXFL 529
# SK-MEL-2 = system: SK-MEL-2
# Malme-3M = system: Malme-3M
# HL-60 = system: HL-60
# K562 = system: K562
# IGROV-1 = system: IGROV-1
# HOP-92 = system: HOP-92
# SF-539 = system: SF-539
# TK-10 = system: TK-10
# SF-268 = system: SF-268
# NCI-H23 = system: NCI-H23
# ACHN = system: ACHN
# UO-31 = system: UO-31
# KM-20L2 = system: KM-20L2
# SF-295 = system: SF-295
# OVCAR-3 = system: OVCAR-3
# NCI-H522 = system: NCI-H522
# OVCAR-4 = system: OVCAR-4
# OVCAR-5 = system: OVCAR-5
# XF498 = system: XF498
# A549 = system: A549
# NCI-H226 = system: NCI-H226
# SK-OV-3 = system: SK-OV-3
# UACC-257 = system: UACC-257
# M14 = system: M14
# A498 = system: A498
# LOX IMVI = system: LOX IMVI
# SK-MEL-5 = system: SK-MEL-5
# 786-0 = system: 786-0
# SW-620 = system: SW-620
# CCRF-CEM = system: CCRF-CEM
# HOP-18 = system: HOP-18
# OVCAR-8 = system: OVCAR-8
# NCI-H460 = system: NCI-H460
# KM12 = system: KM12
# HCT-116 = system: HCT-116
# RXF 393 = system: RXF 393
# SNB-19 = system: SNB-19
# DMS-273 = system: DMS-273
# SNB-78 = system: SNB-78
# HCC 2998 = system: HCC 2998
# M19-MEL = system: M19-MEL
# COLO 205 = system: COLO 205
# RPMI-8226 = system: RPMI-8226
# DLD-1 = system: DLD-1
# SNB-75 = system: SNB-75
# SN12C = system: SN12C
# CAKI-1 = system: CAKI-1
# SK-MEL-28 = system: SK-MEL-28
# UACC-62 = system: UACC-62
# MOLT-4 = system: MOLT-4
# EKVX = system: EKVX
# HT-29 = system: HT-29
# HCT-15 = system: HCT-15
# DMS-114 = system: DMS-114
structure (smiles),measurement,setting,value
Cc1cccc(-c2nnc3s/c(=C\c4ccc(N(C)C)cc4)c(=O)n23)c1,GI50,HOP-62,> 100 µM (inactive)
same,GI50,U-251,> 100 µM (inactive)
same,GI50,LXFL 529,> 100 µM (inactive)
same,GI50,SK-MEL-2,> 100 µM (inactive)
same,GI50,Malme-3M,> 100 µM (inactive)
same,GI50,HL-60,> 100 µM (inactive)
same,GI50,K562,> 100 µM (inactive)
same,GI50,IGROV-1,> 100 µM (inactive)
same,GI50,HOP-92,> 100 µM (inactive)
same,GI50,SF-539,> 100 µM (inactive)
same,GI50,TK-10,> 100 µM (inactive)
same,GI50,SF-268,> 100 µM (inactive)
same,GI50,NCI-H23,> 100 µM (inactive)
same,GI50,ACHN,> 100 µM (inactive)
same,GI50,UO-31,> 100 µM (inactive)
same,GI50,KM-20L2,> 100 µM (inactive)
same,GI50,SF-295,> 100 µM (inactive)
same,GI50,OVCAR-3,> 100 µM (inactive)
same,GI50,NCI-H522,> 100 µM (inactive)
same,GI50,OVCAR-4,> 100 µM (inactive)
same,GI50,OVCAR-5,> 100 µM (inactive)
same,GI50,XF498,> 100 µM (inactive)
same,GI50,A549,> 100 µM (inactive)
same,GI50,NCI-H226,> 100 µM (inactive)
same,GI50,SK-OV-3,> 100 µM (inactive)
same,GI50,UACC-257,> 100 µM (inactive)
same,GI50,M14,> 100 µM (inactive)
same,GI50,A498,> 100 µM (inactive)
same,GI50,LOX IMVI,> 100 µM (inactive)
same,GI50,SK-MEL-5,> 100 µM (inactive)
same,GI50,786-0,> 100 µM (inactive)
same,GI50,SW-620,> 100 µM (inactive)
same,GI50,CCRF-CEM,> 100 µM (inactive)
same,GI50,HOP-18,> 100 µM (inactive)
same,GI50,OVCAR-8,> 100 µM (inactive)
same,GI50,NCI-H460,> 100 µM (inactive)
same,GI50,KM12,> 100 µM (inactive)
same,GI50,HCT-116,> 100 µM (inactive)
same,GI50,RXF 393,> 100 µM (inactive)
same,GI50,SNB-19,> 100 µM (inactive)
same,GI50,DMS-273,> 100 µM (inactive)
same,GI50,SNB-78,> 100 µM (inactive)
same,GI50,HCC 2998,> 100 µM (inactive)
same,GI50,M19-MEL,> 100 µM (inactive)
same,GI50,COLO 205,> 100 µM (inactive)
same,GI50,RPMI-8226,> 100 µM (inactive)
same,GI50,DLD-1,> 100 µM (inactive)
same,GI50,SNB-75,> 100 µM (inactive)
same,GI50,SN12C,> 100 µM (inactive)
same,GI50,CAKI-1,> 100 µM (inactive)
same,GI50,SK-MEL-28,> 100 µM (inactive)
same,GI50,UACC-62,> 100 µM (inactive)
same,GI50,MOLT-4,> 100 µM (inactive)
same,GI50,EKVX,> 100 µM (inactive)
COc1ccc(/C=C/c2onc3c(=O)n(C)nc(-c4ccccc4)c23)cc1,GI50,HOP-62,89.3 µM (inactive)
same,GI50,U-251,> 100 µM (inactive)
same,GI50,LXFL 529,> 100 µM (inactive)
same,GI50,HL-60,> 100 µM (inactive)
same,GI50,HT-29,45 µM (inactive)
same,GI50,K562,> 100 µM (inactive)
same,GI50,IGROV-1,> 100 µM (inactive)
same,GI50,HOP-92,7.26 µM (inactive)
same,GI50,SF-539,48.9 µM (inactive)
same,GI50,TK-10,> 100 µM (inactive)
same,GI50,SF-268,> 100 µM (inactive)
same,GI50,NCI-H23,> 100 µM (inactive)
same,GI50,ACHN,> 100 µM (inactive)
same,GI50,UO-31,> 100 µM (inactive)
same,GI50,KM-20L2,> 100 µM (inactive)
same,GI50,NCI-H522,77.6 µM (inactive)
same,GI50,XF498,37 µM (inactive)
same,GI50,A549,> 100 µM (inactive)
same,GI50,SK-OV-3,> 100 µM (inactive)
same,GI50,M14,> 100 µM (inactive)
same,GI50,LOX IMVI,> 100 µM (inactive)
same,GI50,SK-MEL-5,> 100 µM (inactive)
same,GI50,786-0,> 100 µM (inactive)
same,GI50,SW-620,> 100 µM (inactive)
same,GI50,CCRF-CEM,> 100 µM (inactive)
same,GI50,HOP-18,> 100 µM (inactive)
same,GI50,OVCAR-8,> 100 µM (inactive)
same,GI50,HCT-15,> 100 µM
same,GI50,NCI-H460,> 100 µM (inactive)
same,GI50,HCT-116,> 100 µM (inactive)
same,GI50,RXF 393,> 100 µM (inactive)
same,GI50,SNB-19,> 100 µM (inactive)
same,GI50,DMS-273,> 100 µM (inactive)
same,GI50,M19-MEL,> 100 µM (inactive)
same,GI50,COLO 205,> 100 µM (inactive)
same,GI50,RPMI-8226,> 100 µM (inactive)
same,GI50,DLD-1,> 100 µM (inactive)
same,GI50,SN12C,> 100 µM (inactive)
same,GI50,DMS-114,> 100 µM (inactive)
same,GI50,CAKI-1,35.9 µM (inactive)
same,GI50,SK-MEL-28,> 100 µM (inactive)
same,GI50,UACC-62,> 100 µM (inactive)
same,GI50,MOLT-4,> 100 µM (inactive)
same,GI50,EKVX,> 100 µM (inactive)
